Experimental findings from patent publication US12616681B2, “Compositions and methods for treating renal injury” (priority 2019, dated 2026) are described below.

Each structure is given as a SMILES string.

In test [1] the test system is mice with ischemic AKI (bilateral renal IRI). Nature of the test: Renal IRI model: renal and serum PGE2 after a single pre-IRI dose. It is filed as in vivo, C57/BL6 mice. As to the method: (§1) After reperfusion for 24 h, kidney tissues (˜20 mg) were homogenized in cold PBS containing indomethacin (10 μg/mL) and then centrifuged for 10 min at 12,000 rpm. Protein concentrations of supernatant were determined by BCA assay (ThermoFisher Scientific, Rockford, IL). The PGE2 level was measured using a PGE2 ELISA kit (R&D Systems, Minneapolis, MN) in triplicate. PGE2 levels were expressed as nanograms of PGE2 per milligram of protein. Renal function was assessed by determining the serum levels of blood urea nitrogen (BUN; Abcam), serum creatinine (Agilent 6410 LC-MS/MS, Agilent, Santa Clara, CA), lipocalin-2 (R&D Systems), and kidney injury molecule-1 (KIM-1; R&D Systems) after reperfusion for 24 h. Measurement of serum creatinine was by HPLC. Serum creatinine was assessed using an Agilent 6410 LC-MS/MS system coupled with an Agilent 1200 series HPLC system (Agilent). The sample preparation for serum creatinine was that 50 μL of serum samples were mixed with 100 μL of acetonitrile that contained creatinine-d3 as an internal standard (5 μg/mL). The mixture was centrifuged at 13,000 rpm for 10 min after vigorous vortex, and 1 μL of supernatant was then injected into the LC-MS/MS system. The chromatography separation was performed on a Hypersil GOLD C18 column (150×2.1 mm, 3 m, Thermo Scientific) using a mobile phase of 0.1% formic acid solution and acetonitrile [70:30 (vol/vol)]. The flow rate was 0.2 mL/min. Electrospray ionization was performed in the positive ion mode. The capillary voltage was set at 4,000 V. Nitrogen as the nebulizing gas was set at 15 psi, and the drying gas temperature was set at 300° C., with a flow rate of 6 L/min. The multiple-reaction monitoring mode using specific precursor/production transition was used for quantification. Detection of ions was performed by monitoring m/z 114.1→44.1 for creatinine and 117.1→77.1 for creatinine-d3. The collision energies were 10 and 15 eV for creatinine and creatinine-d3, respectively. The peak areas for all analytes were integrated automatically using Agilent Mass Hunter Analysis software (version B.01.04).

Test [2] shares this test system. Nature of the test: Renal IRI model: renal vasodilation and renal Doppler flux (RBF). Type of test: in vivo, C57/BL6 mice. As to the method:
The inner arteriolar area of the outer medulla was determined using α-smooth muscle actin (α-SMA)-stained sections. Kidneys were removed without perfusion under inhalational isoflurane anesthesia, divided into three pieces horizontally, immediately fixed in 10% formalin, and then embedded in paraffin. The inner area of α-SMA-positive vessels in the outer medulla was measured using ImageJ. The results are expressed as average areas of renal arteries in the outer medulla. As a surrogate for RBF, we used noninvasive laser Doppler flowmetry (periflux system 5000, Perimed) to measure flux, placing laser-Doppler probes at a fixed position on the kidney surface and recording renal cortical measurements. […] The relative increase represents the percent increase in RDF from baseline to peak for each test.

The test system is the same in test [3]. As to the kind of experiment: Renal IRI model: oxidative stress (MDA in kidney tissue). The note with it: single pre-IRI dose; vehicle peaked at 2 h at 48%. Type of test: in vivo, C57/BL6 mice. The method, then: Reactive oxygen species (ROS) levels were determined by measurement of malondialdehyde (MDA), the end product of lipid peroxidation in kidney lysates. Free MDA reacts with thiobarbituric acid (TBA) at 95° C. to generate an MDA-TBA adduct, which can be quantified colorimetrically at a wavelength of 532 nm. MDA levels were measured in kidney lysates using a lipid peroxidation (MDA) assay kit (Abcam, Cambridge, UK). Results were corrected for total protein level and are expressed as […].

Test [4] shares this test system. As to the kind of experiment: Renal IRI (ischemic AKI) mouse model: renal function markers. It is filed as in vivo, C57/BL6 mice. As to the method: as §1, with “Briefly, mice were anesthetized with isoflurane using a vaporizer, and bilateral renal arteries were clamped for 30 min (2, 49). After the ischemic time, clamps were released to induce blood reperfusion. […] Serum and kidney tissue were collected 24 h after renal IRI. […] After” for “After”, “The sample preparation for serum creatinine was that 50 μL of serum samples were mixed with 100 μL of acetonitrile that contained creatinine-d3 as an internal standard (5 μg/mL).” left out, “Detection of ions was performed by monitoring m/z 114.1→44.1 for creatinine and 117.1→77.1 for creatinine-d3. The collision energies were 10 and 15 eV for creatinine and creatinine-d3, respectively.” left out

The subject of test [5] is human renal proximal tubular epithelial cells (hRPTECs). As to the kind of experiment: hRPTEC apoptosis by flow cytometry with iodixanol. Type of test: cell-based. The note with it: drug with iodixanol 50 mgI/mL, 24 h. As to the method: Human renal proximal tubular epithelial cells (hRPTECs) were purchased from the American Type Culture Collection (#PCS-400-010TM, Manassas, VA, USA). These cells were grown in 75 cm^2 flasks in Renal Epithelial Cell Basal Medium (PCS-400-030TM, ATCCVR) supplemented with Renal Epithelial Cell Growth Kit (PCS-400-040TM, ATCCVR).
After the treatment described in the section above, the hRPTECs were pelleted by centrifugation at 1800 rpm for 10 min and incubated with annexin V fluorescein isothiocyanate and propidium iodide using an Apoptosis Detection Kit I (#556547, BD Biosciences, San Jose, CA, USA) according to the manufacture's instruction. Then quantification was conducted using a FACSC flow cytometer with Cell Quest software (BD Biosciences).
For orientation: A flow cytometer gives signals particle by particle.

Where [6] appears, read: 24 h after renal IRI, vs IRI-vehicle mice, dosing before and after IRI.

`CCCC[S+]([O-])c1sc2nc(-c3cccs3)cc(-c3ccccc3)c2c1N` (centres unmarked) [SW033291]: in test [1] (24 h, single pretreatment dose), the “renal PGE2 levels” value was “significantly decreased” and the “serum PGE2 levels” value is “significantly decreased”. For the same compound, in test [1] (single pre-IRI dose), the “post-IRI peaks of renal PGE2 (immediate and 14 h)” value is recorded as “substantially block”. Besides, the “RDF-inferred RBF” value in test [2] (24 h following IRI) is on record as “completely preserved”. Besides, in test [2] (24 h post-IRI, vs post-IRI vehicle and sham mice), the “renal arteriolar area in the outer medulla” value was “significantly increased”. The “protection from reduction of RDF-inferred RBF” value in test [2] (single dose 1 h before IRI (Pre) vs Pre+Post) is “somewhat less protection”. In addition, in test [2] (within 1 h after the first injection, just before AKI), the “RDF-inferred RBF” value is reported as “increased inferred RBF above baseline”. For the same compound, in test [3], the “MDA increase above baseline after renal IRI” value is reported as 14%. Besides, in test [4] (setting [6]), the “BUN (serum)” value is “significantly reducing”, the “KIM-1 (serum)” value was “significantly reducing”, the “NGAL (serum)” value was “significantly reducing” and the “creatinine (serum)” value is reported as “significantly reducing”. Moreover, the “induction of NGAL, KIM-1, and creatinine” value in test [4] (single pre-IRI dose (Pre), time course) is recorded as “notable protection”. Moreover, the “apoptosis rate of hRPTECs” value in test [5] was found to be 10.06±0.85%.
